Laboratory results: patent publication US9277761B2, “Nutrition trace element composition” (priority 2003, dated 2016)
Like-named read-outs stand apart in the source and are kept apart here.

Key:
[1] = tested on: humans; conditions: cited from earlier work; for Outcome of inadvertent intravenous infusion: person
[2] = cited from earlier work
[3] = oral administration of 1 mg of sodium selenite; cited from earlier work
[4] = tested on: guinea pigs; conditions: peroral administration; cited from earlier work
[5] = tested on: rabbits; conditions: cited from earlier work
[6] = tested on: mice; conditions: cited from earlier work
[7] = tested on: humans; conditions: cited from earlier work
[8] = tested on: rats; conditions: intravenous administration; cited from earlier work
[9] = tested on: various experimental animals; conditions: cited from earlier work
[10] = Study of 52 patients receiving parenteral nutrition: zinc level in serum and whole blood; assay type: in vivo, humans
Experimental: In a study of 52 patients receiving parenteral nutrition, whereby the patients had haemorrhages, polytrauma/trauma and tumours, in the Vogtland-Klinikum Plauen GmbH, the trace element status of the patients was determined throughout the course of the therapy on the basis of routine medication and routine supplementation.
The goal was to establish whether the routinely administered trace element substitution led to a satisfactory supply of trace elements. For this purpose, the serum and whole blood levels of the trace elements chromium, iron, fluorine, iodine, copper, manganese, molybdenum, selenium and zinc were determined daily, for a minimum of 3 and a maximum of 18 days.
Throughout the above-mentioned observation period, the patients received the normal routine supplementation with the preparations Inzolen HK, Inzolen® sine NaCL, Selenase® and Unizink®, at various times and in various dosages. The trace elements cobalt, copper, manganese, selenium and zinc were administered by means of these preparations, in addition to the macro elements chloride, magnesium, potassium and sodium.
Corresponding to the previous routine, the Inzolen® administrations were made dependent on the daily determined serum potassium level, with the normal range being targeted. Zinc and selenium administration took place on the basis of experience in certain illness situations. The above-mentioned determination of the further macro element and trace element levels was only intended for retrospective observation of the trace element status, and was not included in the daily decision process for any supplementation.
The following reference ranges were the basis for the evaluation:
The second step was to establish what percent of the patients' trace element levels were below, within and above the reference range throughout the entire observation period (3-18 days).
Moreover, the behaviour curves of the trace element levels in the serum and whole blood of each patient were evaluated, whereby performance of further treatments/therapies (Op, CT, accompanying medication, etc.) was taken into consideration.

[11] = cited from earlier work; remark: listed apart in the source
[12] = tested on: T-lymphocytes and natural killer cells; conditions: humans, 200 μg of selenium a day for eight weeks; cited from earlier work
[13] = 20 healthy young men, 160 mg zinc/d for 5 weeks
[14] = Ø, entire observation period (3-18 days)

## O=S(=O)([O-])[O-].[Zn+2] [ZnSO4]
[1]; adults
  Dose considered deadly for adults: 5 g
[1]; in vivo
  Dose resulting in vomiting: 1 to 2 g
[1]; total 7.4 g zinc within 60 hours
  Outcome of inadvertent intravenous infusion: death

## O=[75Se]([O-])[O-].[Na+].[Na+] [[^75Se] sodium selenite]
[2]; intravenous, first 24 hours
  Dose excreted: 12%
[2]; intravenous
  Additional portion of dose eliminated in second phase: 40%
  Biological half-life of second phase: 20 days
  Half-life of the third phase: 115 days
[2]; oral 10 μg, first two weeks
  Absorbed dose excreted through the urine: 14-20%
[2]; oral 10 μg
  Half-life of total body retention, 1st phase: 0.7 to 1.2 days
  Half-life of total body retention, 2nd phase: 7 to 11 days
  Half-life of total body retention, 3rd phase: 96 to 144 days

## O=[Se](O)O [sodium selenite]
[3]
  Absorption, average portion: 62±14%
[4]
  LD50: 2.3 mg/kg BW
[5]; intravenous administration
  LD50: 0.9 mg/kg BW
[5]; peroral administration
  LD50: 2.25 mg/kg BW
[6]; intravenous administration
  LD50: 2.2 mg of selenium/kg BW
[6]; peroral administration
  LD50: 3.2-3.5 mg/kg BW
[7]; four persons, 2 mg selenium a day for 20-40 days
  Indications of selenium poisoning: did not result in any indications of selenium poisoning
[7]; in vivo
  Chronic toxicity: 3-7 mg of selenium/day
  Whole blood concentration at which first symptoms of poisoning manifest: 1.05 mg of selenium/l whole blood
[7]; long-term use (longer than three months)
  Dosage seen as harmless: up to 550 μg of selenium a day
[7]; peroral 50 μg selenium per kg bodyweight over one year, patients with neuronal ceroid lipofuscinosis
  Symptoms of selenium poisoning: no symptoms of selenium poisoning were observed
[7]; person, 2 mg sodium selenite (900 μg selenium) daily for more than two years
  Symptoms of chronic poisoning: fingernails were thickened and brittle
[7]; person, approx. 27 mg selenium a day for approx. two months
  Symptoms of poisoning: suffered from lassitude, nausea, vomiting, depression, bad breath, hair loss and nails that fell off
[8]
  LD50: 5.7 mg/kg BW
[9]
  Acute toxicity: 1-5 mg of selenium per kg BW

## [Zn] [Zinc]
[1]; 150 mg of zinc a day over 2 years
  Effect of repeated administration: copper deficiency
[1]; 1.5 g zinc over 60 hours
  Outcome of inadvertent intravenous infusion: ended fatally
[1]; [13]
  HDL cholesterol level: significantly reduced
  Total cholesterol, triglycerides and LDL cholesterol: normal levels
[1]; healthy young women, 100 mg daily for 8 weeks
  Effect on the blood lipid levels: no effect
[1]; toxic range not starting until quantities in the grams
  Toxicity: low toxicity
[10]; Day 1
  Zinc in serum, patients Above reference range: 4%
  Zinc in serum, patients Below reference range: 76%
  Zinc in serum, patients Within reference range: 20%
  Zinc in whole blood, patients Above reference range: 10%
  Zinc in whole blood, patients Below reference range: 6%
  Zinc in whole blood, patients Within reference range: 84%
[10]; Day 2
  Zinc in serum, patients Above reference range: 2%
  Zinc in serum, patients Below reference range: 85%
  Zinc in serum, patients Within reference range: 13%
  Zinc in whole blood, patients Above reference range: 8%
  Zinc in whole blood, patients Below reference range: 18%
  Zinc in whole blood, patients Within reference range: 75%
[10]; Day 3
  Zinc in serum, patients Above reference range: 0%
  Zinc in serum, patients Below reference range: 78%
  Zinc in serum, patients Within reference range: 22%
  Zinc in whole blood, patients Above reference range: 8%
  Zinc in whole blood, patients Below reference range: 12%
  Zinc in whole blood, patients Within reference range: 80%
[10]; Day 4
  Zinc in serum, patients Above reference range: 0%
  Zinc in serum, patients Below reference range: 86%
  Zinc in serum, patients Within reference range: 14%
  Zinc in whole blood, patients Above reference range: 5%
  Zinc in whole blood, patients Below reference range: 14%
  Zinc in whole blood, patients Within reference range: 81%
[10]; Day 5
  Zinc in serum, patients Above reference range: 3%
  Zinc in serum, patients Below reference range: 80%
  Zinc in serum, patients Within reference range: 17%
  Zinc in whole blood, patients Above reference range: 6%
  Zinc in whole blood, patients Below reference range: 17%
  Zinc in whole blood, patients Within reference range: 77%
[10]; Day 6
  Zinc in serum, patients Above reference range: 4%
  Zinc in serum, patients Below reference range: 68%
  Zinc in serum, patients Within reference range: 29%
  Zinc in whole blood, patients Above reference range: 4%
  Zinc in whole blood, patients Below reference range: 7%
  Zinc in whole blood, patients Within reference range: 89%
[10]; Day 7
  Zinc in serum, patients Above reference range: 0%
  Zinc in serum, patients Below reference range: 63%
  Zinc in serum, patients Within reference range: 38%
  Zinc in whole blood, patients Above reference range: 8%
  Zinc in whole blood, patients Below reference range: 8%
  Zinc in whole blood, patients Within reference range: 83%
[10]; Day 8
  Zinc in serum, patients Above reference range: 0%
  Zinc in serum, patients Below reference range: 50%
  Zinc in serum, patients Within reference range: 50%
  Zinc in whole blood, patients Above reference range: 8%
  Zinc in whole blood, patients Below reference range: 4%
  Zinc in whole blood, patients Within reference range: 88%
[10]; Day 9
  Zinc in serum, patients Above reference range: 4%
  Zinc in serum, patients Below reference range: 43%
  Zinc in serum, patients Within reference range: 52%
  Zinc in whole blood, patients Above reference range: 9%
  Zinc in whole blood, patients Below reference range: 0%
  Zinc in whole blood, patients Within reference range: 91%
[10]; Day 10
  Zinc in serum, patients Above reference range: 5%
  Zinc in serum, patients Below reference range: 33%
  Zinc in serum, patients Within reference range: 62%
  Zinc in whole blood, patients Above reference range: 5%
  Zinc in whole blood, patients Below reference range: 0%
  Zinc in whole blood, patients Within reference range: 95%
[10]; Day 11
  Zinc in serum, patients Above reference range: 16%
  Zinc in serum, patients Below reference range: 16%
  Zinc in serum, patients Within reference range: 68%
  Zinc in whole blood, patients Above reference range: 11%
  Zinc in whole blood, patients Below reference range: 0%
  Zinc in whole blood, patients Within reference range: 89%
[10]; Day 12
  Zinc in serum, patients Above reference range: 7%
  Zinc in serum, patients Below reference range: 20%
  Zinc in serum, patients Within reference range: 73%
  Zinc in whole blood, patients Above reference range: 7%
  Zinc in whole blood, patients Below reference range: 7%
  Zinc in whole blood, patients Within reference range: 87%
[10]; Day 13
  Zinc in serum, patients Above reference range: 14%
  Zinc in serum, patients Below reference range: 7%
  Zinc in serum, patients Within reference range: 79%
  Zinc in whole blood, patients Above reference range: 7%
  Zinc in whole blood, patients Below reference range: 7%
  Zinc in whole blood, patients Within reference range: 86%
[10]; Day 14
  Zinc in serum, patients Above reference range: 0%
  Zinc in serum, patients Below reference range: 8%
  Zinc in serum, patients Within reference range: 92%
  Zinc in whole blood, patients Above reference range: 0%
  Zinc in whole blood, patients Below reference range: 0%
  Zinc in whole blood, patients Within reference range: 100%
[10]; Day 15
  Zinc in serum, patients Above reference range: 0%
  Zinc in serum, patients Below reference range: 8%
  Zinc in serum, patients Within reference range: 92%
  Zinc in whole blood, patients Above reference range: 8%
  Zinc in whole blood, patients Below reference range: 0%
  Zinc in whole blood, patients Within reference range: 92%
[10]; Day 16
  Zinc in serum, patients Above reference range: 0%
  Zinc in serum, patients Below reference range: 9%
  Zinc in serum, patients Within reference range: 91%
  Zinc in whole blood, patients Above reference range: 9%
  Zinc in whole blood, patients Below reference range: 0%
  Zinc in whole blood, patients Within reference range: 91%
[10]; Day 17
  Zinc in serum, patients Above reference range: 10%
  Zinc in serum, patients Below reference range: 10%
  Zinc in serum, patients Within reference range: 80%
  Zinc in whole blood, patients Above reference range: 10%
  Zinc in whole blood, patients Below reference range: 0%
  Zinc in whole blood, patients Within reference range: 90%
[10]; Day 18
  Zinc in serum, patients Above reference range: 10%
  Zinc in serum, patients Below reference range: 10%
  Zinc in serum, patients Within reference range: 80%
  Zinc in whole blood, patients Above reference range: 20%
  Zinc in whole blood, patients Below reference range: 0%
  Zinc in whole blood, patients Within reference range: 80%
[10]; patients with normal whole blood zinc receiving zinc, even high administration
  Zinc level in the serum: scarcely influenced
[10]; [14]
  Zinc in serum, patients Above reference range: 14%
  Zinc in serum, patients Below reference range: 38%
  Zinc in serum, patients Within reference range: 49%
  Zinc in whole blood, patients Above reference range: 7%
  Zinc in whole blood, patients Below reference range: 5%
  Zinc in whole blood, patients Within reference range: 88%
[11]; humans
  Concentration in the cerebral spinal fluid relative to plasma concentration: a tenth
[11]; in vivo
  Portion excreted through the faeces: 90%
[11]; physiological conditions, roughly
  Portion resorbed from the nourishment: 20-30%

## [Zn] [elementary zinc]
[1]; 12 g/d for 2 days, child
  Symptoms after ingestion: recklessness, lethargy and dysgraphia

## O=[74Se]([O-])[O-].[Na+].[Na+] [[^74Se] sodium selenite]
[2]; intravenous 82 μg of selenium, first 24 hours
  Dose excreted: 18%
[2]; peroral administration, first 24 hours
  Absorbed dose excreted through the urine: 12%

## [Se] [Selenium]
[2]; in vivo
  Portion of selenium taken in with food that leaves the organism renally: 50-70%
Concluded from the results
  Selenium substitution required (long-term, continuous): 1000 µg/day
Higher versus reduced selenium level
  Tendency towards infection: reduced tendency towards infection
human, in vivo
  Selenium level in the serum: rose up into the reference range
  Selenium whole blood levels: rose only to just below the reference range
[7]; in vivo, po
  Recommended maximum single oral dose: at most 50 μg of selenium/kg BW
[7]; in vivo
  Dosage seen as harmless: up to 500 μg of selenium a day
  Maximum safe ingestion over a longer time frame (WHO 1996): 400 μg of selenium a day
  Recommended maximum dose for long-term use: at most 5 μg of selenium/kg BW
  Selenium content of whole blood from which symptoms can appear: ≥ 1000 μg/l of whole blood
  Selenium ingestion in areas with chronic selenium poisonings: 3-7 mg of selenium a day
[12]
  Formation of the interleukin-2 receptor, lymphocyte proliferation, cell-destroying effect of T-lymphocytes and natural killer cells: increases

## O=[Se](O)O [selenous acid]
[7]; two children, 10-15 ml weapon-cleaning agent with approx. 1.8% selenous acid, roughly 110 mg selenium
  Outcome of acute selenium poisoning: died
